Measured values published in ChEMBL document CHEMBL1142514, “Improved synthesis of 6-epi-dictyostatin and antitumor efficacy in mice bearing MDA-MB231 human breast cancer xenografts” (2008).

What was measured:
Assay type in all cases: functional
[1] = tested on: MDA-MB-231; assay: Antitumor activity against human MDA-MB-231 cells xenografted in CB17 SCID mouse assessed as ratio of median tumor volume for drug to control administered at 20 mg/kg, iv q7d in 3 schedule after 14 days
[2] = tested on: MDA-MB-231; assay: Antitumor activity against human MDA-MB-231 cells xenografted in CB17 SCID mouse assessed as two tumor doubling time administered at 20 mg/kg, iv q7d in 3 schedule
[3] = tested on: MDA-MB-231; assay: Antitumor activity against human MDA-MB-231 cells xenografted in CB17 SCID mouse assessed as one tumor doubling time administered at 20 mg/kg, iv q7d in 3 schedule
[4] = tested on: MDA-MB-231; assay: Antitumor activity against human MDA-MB-231 cells xenografted in CB17 SCID mouse assessed as ratio of median tumor volume for drug to vehicle administered at 20 mg/kg, iv q7d in 3 schedule after 17 days

CC(=O)O[C@H]1C(=O)[C@@]2(C)[C@H]([C@H](OC(=O)c3ccccc3)[C@]3(O)C[C@H](OC(=O)[C@H](O)[C@@H](NC(=O)c4ccccc4)c4ccccc4)C(C)=C1C3(C)C)[C@]1(OC(C)=O)CO[C@@H]1C[C@@H]2O [PACLITAXEL]
T/C [1]: 33% | Activity [2]: 19 days | Activity [3]: 7.9 days | Activity [4]: 31%
